Where “and” joins values, the source holds several entries; their conditions need not be identical. Equal values may be shown once. Read-outs that look alike come from different tables or passages of the source.
Columns and labels:
[1] = tested on: kindled rat; assay: kindled rat test (corneal kindled rat screen); assay type: in vivo, rats; details: for protection in the corneal kindled rat screen: in vivo; for ED50: Rattus norvegicus, read-out: ED50 (dose required to reduce seizures from stage 5 to stage 3 or less)
Source text: Particularly preferred compounds according to the present invention are 4-(4′-fluorophenoxy)benzaldehyde semicarbazone and 4-(thiophenoxy)benzaldehyde semicarbazone. […] Incidentally, the kindled rat screen is described by R. J. Racine in “Modification of Seizure Activity by Electrical Stimulation. II. Motor Seizure”, Electroencephalogr.Clin.Neurophysiol., 1972, 32, 281-294, and by G. Skeen et al. In “Development of Kindled Seizures Following Electrical Stimulation via the Cornea”, Soc.Neurosci., 1990, 16(1), 307; the disclosures of which are incorporated herein by reference.
The kindled rat test was undertaken by reported procedures (as indicated above). Compound 4b was administered orally and the animals challenged with electrical stimuli 2h later. The ED50 is the dose required to reduce seizures from stage 5 to stage 3 or less and these stages are described as follows namely stage 1 is mouth and facial clonus, stage 2 is stage 1 plus head nodding, stage 3 is stage 2 plus forelimb clonus, stage 4 is stage 3 plus rearing and stage 5 is stage 4 plus repeated rearing and falling.

[2] = tested on: mice; assay: MES screen after intraperitoneal injection in mice; assay type: in vivo; details: time t (h) per compound as in the table; for ED50: Mus musculus, ip
[3] = tested on: mice; details: intraperitoneal injection in mice; time t (h) per compound as in the table
Description: An initial anticonvulsant evaluation of the compounds prepared according to Example 1 was undertaken by administering the compounds by the intraperitoneal route to mice. Protection and/or neurotoxicity was noted 0.5 and 4 hours after administering doses of 30, 100 and 300 mg/kg of each semicarbazone to the animals.
Doses of 30, 100 and 300 mg/kg were injected by the intraperitoneal route into mice and evaluated in the MES, scPTZ and neurotoxicity screens one half and four hours after administration.

[4] = tested on: mice
[5] = tested on: rats; assay: MES screen after oral administration to rats; details: for ED50: Rattus norvegicus, po
Description: The majority of the compounds were examined for oral activity in rats. Initially doses of 50 mg/kg of the semicarbazones were administered.
Evaluation of most of the semicarbazones and analogs in the MES and neurotoxicity tests after oral administration to rats was performed.

[6] = tested on: rats; assay: neurotoxicity screen after oral administration to rats; details: oral administration to rats; time t (h) per compound as in the table
Description: (§1) Initially doses of 50 mg/kg of the semicarbazones were administered.

[7] = tested on: rats; assay: scPTZ screen after oral administration to rats
Description: as §1

[8] = tested on: epileptic chicken; assay: epileptic chicken model (intermittent photic stimulation); assay type: in vivo; details: convulsions induced by intermittent photic stimulation
Source text: Two series of compounds were examined with the aim of observing whether oxygen or sulfur is a preferable spacer atom between the two aryl rings and also to compare the ED50 figures with those obtained in the rat oral and mouse intraperitoneal screens.

[9] = in vivo; details: rat, po
Description: as §1

[10] = tested on: rats; details: rat, in vivo, po
Description: as §1

[11] = intraperitoneal injection in mice, read-out: MES screen ED50
[12] = read-out: MES screen ED50 (mg/kg)
[13] = oral administration to rats, dose 50 mg/kg, 0.25 h
[14] = oral administration to rats, dose 50 mg/kg, 0.5 h
[15] = oral administration to rats, dose 50 mg/kg, 1 h
[16] = oral administration to rats, dose 50 mg/kg, 2 h
[17] = oral administration to rats, dose 50 mg/kg, 4 h
[18] = doses indicated in Table 1, after 0.5 h
[19] = doses indicated in Table 1, after 1 h
[20] = doses indicated in Table 1, after 4 h
[21] = oral administration to rats, dose 12.5 mg/kg, 0.5 h
[22] = oral administration to rats, dose 12.5 mg/kg, 1 h
[23] = oral administration to rats, dose 12.5 mg/kg, 2 h
[24] = oral administration to rats, dose 12.5 mg/kg, 4 h
[25] = oral administration to rats, time t (h) per compound as in the table
[26] = doses indicated in Table 1, after 2 h
[27] = intraperitoneal injection in mice
[28] = intraperitoneal injection in mice, time t (h) per compound as in the table
[29] = oral administration to rats, dose 12.5 mg/kg, 0.25 h

NC(=O)NN=Cc1ccc(Oc2ccc(F)cc2)cc1 [4-(4′-fluorophenoxy)benzaldehyde semicarbazone]
protection in the corneal kindled rat screen [1]: afford protection

NC(=O)NN=Cc1ccc(Sc2ccccc2)cc1 [4-(thiophenoxy)benzaldehyde semicarbazone]
protection in the corneal kindled rat screen [1]: afford protection

NC(=O)N1c2ccccc2C=Cc2ccccc21 [Carbamazepine, reference compound]
ED50 [2, 11]: 9.85 mg/kg | ED50 [1]: 28.9 mg/kg | acPTZ screen ED50 [3]: >50 mg/kg | toxicity screen 0.5 h: minimum dose whereby bioactivity was demonstrated in half or more of the mice ([4]; mouse, in vivo, 0.5 h): 100 mg/kg | toxicity screen: minimum dose whereby bioactivity was demonstrated in half or more of the mice ([4]; mouse, in vivo, 0.5 h): 100 mg/kg | toxicity screen 4 h: minimum dose whereby bioactivity was demonstrated in half or more of the mice ([4]; mouse, in vivo, 4 h): 300 mg/kg | toxicity screen: minimum dose whereby bioactivity was demonstrated in half or more of the mice ([4]; mouse, in vivo, 4 h): 300 mg/kg | neurotoxicity screen TD50 ([4]; mouse, in vivo, ip): 47.8 mg/kg | ED50 [5, 12]: 3.57 mg/kg | neurotoxicity screen TD50 [6]: 361 mg/kg

NC(=O)NN=Cc1ccc(Oc2ccc(I)cc2)cc1 [Compound 4e]
MES screen 0.25 h: number of rats out of 4 which were protected [5, 13]: 3 | MES screen 0.5 h: number of rats out of 4 which were protected [5, 14]: 4 | MES screen 1 h: number of rats out of 4 which were protected [5, 15]: 4 | MES screen 2 h: number of rats out of 4 which were protected [5, 16]: 4 | MES screen 4 h: number of rats out of 4 which were protected [5, 17]: 4 | number of rats protected in the scPTZ screen [7, 18]: 1/4 | number of rats protected in the scPTZ screen [7, 19]: 1/4 | number of rats protected in the scPTZ screen [7, 20]: 1/4

Cc1ccccc1Oc1ccc(C=NNC(N)=O)cc1 [Compound 5n]
MES screen 0.5 h: number of rats out of 4 which were protected [5, 21]: 4 | MES screen 1 h: number of rats out of 4 which were protected [5, 22]: 3 | MES screen 2 h: number of rats out of 4 which were protected [5, 23]: 4 | MES screen 4 h: number of rats out of 4 which were protected [5, 24]: 4 | MES screen ED50 [5, 25]: 5.65 mg/kg | number of rats protected in the scPTZ screen [7, 18]: 1/4 | number of rats protected in the scPTZ screen [7, 19]: 1/4 | number of rats protected in the scPTZ screen [7, 26]: 1/4 | neurotoxicity screen TD50 [6]: >500 mg/kg

CCCCc1ccc(Oc2ccc(C=NNC(N)=O)cc2)cc1 [Compound 5r]
MES screen ED50 [2, 27]: 13.36 mg/kg | acPTZ screen ED50 [3]: 86.93 mg/kg | neurotoxicity screen TD50 [4, 28]: 131.27 mg/kg | MES screen 0.5 h: number of rats out of 4 which were protected [5, 21]: 2 | MES screen 1 h: number of rats out of 4 which were protected [5, 22]: 2 | MES screen 2 h: number of rats out of 4 which were protected [5, 23]: 3 | MES screen 4 h: number of rats out of 4 which were protected [5, 24]: 4 | MES screen ED50 [5, 25]: 3.21 mg/kg | number of rats protected in the scPTZ screen [7, 19]: 1/4 | number of rats protected in the scPTZ screen [7, 26]: 2/4 | number of rats protected in the scPTZ screen [7, 20]: 1/4 | neurotoxicity screen TD50 [6]: >3.22 mg/kg

NC(=O)NN=Cc1ccc(Sc2ccccc2)cc1 [Compound 15a]
MES screen ED50 [2, 27]: 15.62 mg/kg | ED50 in the epileptic chicken model [8]: 2.5 mg/kg | acPTZ screen ED50 [3]: >46 mg/kg | neurotoxicity screen TD50 [4, 28]: 181.00 mg/kg | MES screen: number of rats out of 4 which were protected [5, 14]: 4 | MES screen: number of rats out of 4 which were protected [5, 15]: 4 | MES screen: number of rats out of 4 which were protected [5, 16]: 4 | MES screen: number of rats out of 4 which were protected [5, 17]: 4 | neurotoxicity screen TD50 [6]: >496 mg/kg

NC(=O)NN=Cc1ccc(Sc2ccc(F)cc2)cc1 [Compound 16a]
MES screen ED50 [2, 27]: 12.37 mg/kg | ED50 in the epileptic chicken model [8]: 1.5 mg/kg | acPTZ screen ED50 [3]: >120 mg/kg | neurotoxicity screen TD50 [4, 28]: 88.00 mg/kg | MES screen: number of rats out of 4 which were protected [5, 29]: 1 | MES screen: number of rats out of 4 which were protected [5, 21]: 3 | MES screen: number of rats out of 4 which were protected [5, 22]: 4 | MES screen: number of rats out of 4 which were protected [5, 23]: 4 | MES screen: number of rats out of 4 which were protected [5, 24]: 4 | neurotoxicity screen TD50 [6]: 183.05 mg/kg

NC(=O)NN=Cc1ccc(Sc2ccc(Cl)cc2)cc1 [Compound 16b]
MES screen ED50 [2, 27]: 16.22 mg/kg | ED50 in the epileptic chicken model [8]: 1.0 mg/kg | acPTZ screen ED50 [3]: >120 mg/kg | neurotoxicity screen TD50 [4, 28]: 53.18 mg/kg | MES screen: number of rats out of 4 which were protected [5, 13]: 1 | MES screen: number of rats out of 4 which were protected [5, 14]: 4 | MES screen: number of rats out of 4 which were protected [5, 15]: 4 | MES screen: number of rats out of 4 which were protected [5, 16]: 4 | MES screen: number of rats out of 4 which were protected [5, 17]: 4

NC(=O)NN=Cc1ccc(Sc2ccc(Br)cc2)cc1 [Compound 16c]
MES screen ED50 [2, 27]: 24.37 mg/kg | ED50 in the epileptic chicken model [8]: 1.5 mg/kg | acPTZ screen ED50 [3]: >200 mg/kg | neurotoxicity screen TD50 [4, 28]: 122.57 mg/kg | MES screen: number of rats out of 4 which were protected [5, 29]: 0 | MES screen: number of rats out of 4 which were protected [5, 21]: 1 | MES screen: number of rats out of 4 which were protected [5, 22]: 3 | MES screen: number of rats out of 4 which were protected [5, 23]: 4 | MES screen: number of rats out of 4 which were protected [5, 24]: 4

O=C1NC(=O)C(c2ccccc2)(c2ccccc2)N1 [Phenytoin, reference compound]
ED50 [2, 11]: 6.32 mg/kg | MES screen ED50 [2, 27]: 6.48 mg/kg | ED50 [1]: > 100 mg/kg | acPTZ screen ED50 [3]: >50 mg/kg | neurotoxicity screen TD50 [4, 28]: 41.23 mg/kg and 42.8 mg/kg | toxicity screen 0.5 h: minimum dose whereby bioactivity was demonstrated in half or more of the mice ([4]; mouse, in vivo, 0.5 h): 100 mg/kg | toxicity screen: minimum dose whereby bioactivity was demonstrated in half or more of the mice ([4]; mouse, in vivo, 0.5 h): 100 mg/kg | toxicity screen 4 h: minimum dose whereby bioactivity was demonstrated in half or more of the mice ([4]; mouse, in vivo, 4 h): 100 mg/kg | toxicity screen: minimum dose whereby bioactivity was demonstrated in half or more of the mice ([4]; mouse, in vivo, 4 h): 100 mg/kg | TD50 [9]: > 500 mg/kg | ED50 [5, 12]: 23.2 mg/kg

CCCC(CCC)C(=O)O [Valproic acid, reference compound]
ED50 ([2]; read-out: MES screen ED50 (mg/kg), intraperitoneal injection in mice): 287 mg/kg | ED50 [1]: 117 mg/kg | acPTZ screen ED50 [3]: 209 mg/kg | neurotoxicity screen TD50 [10]: 859 mg/kg | ED50 ([5]; read-out: MES screen ED50 (mg/kg), oral administration to rats, time t (h) per compound as in the table): 395 mg/kg
